Among the targets are Cytochrome P450 3A4 (Homo sapiens, UniProt P08684); Cytochrome P450 2D6 (Homo sapiens, UniProt P10635); Cytochrome P450 2C9 (Homo sapiens, UniProt P11712).
For series [1], the target named is T1, Estrogen receptor beta (Homo sapiens, UniProt Q92731). Description: ERβ–SRC-3 coactivator interaction inhibitors, confirmation, orthogonal assay, biochemical, ELISA, streptavidin-HRP readout (AID 1060). (ELISA stands for enzyme-linked immunosorbent assay.)
A further series concerns the target SUMO E1/E2 (Homo sapiens, UniProt P63279+Q9UBE0+Q9UBT2). The series can be described thus: SAR analysis of SUMOylation using HTRF in an in-Vitro dose response assay. [Related pubchem assays (depositor defined):AID2006, AID2011, AID2018, AID2069, AID2658]. It counts as functional. (In general: Time-resolved FRET reads energy transfer from a long-lived donor to a nearby acceptor.)

For series [2], the target named is T1, Estrogen receptor beta.
In series [3] the target is T2, Voltage-gated N-type calcium channel alpha-1B subunit/Amyloid beta A4 precursor protein-binding family A member 1 (Homo sapiens, UniProt Q00975+Q02410). The series can be described thus: disruptors of Mint-PDZ/N-type channel peptide interaction – biochemical, HTRF, set 2, SAR follow-up (AID 434980). It counts as functional.
T2 sequence (Q00975 whole entry): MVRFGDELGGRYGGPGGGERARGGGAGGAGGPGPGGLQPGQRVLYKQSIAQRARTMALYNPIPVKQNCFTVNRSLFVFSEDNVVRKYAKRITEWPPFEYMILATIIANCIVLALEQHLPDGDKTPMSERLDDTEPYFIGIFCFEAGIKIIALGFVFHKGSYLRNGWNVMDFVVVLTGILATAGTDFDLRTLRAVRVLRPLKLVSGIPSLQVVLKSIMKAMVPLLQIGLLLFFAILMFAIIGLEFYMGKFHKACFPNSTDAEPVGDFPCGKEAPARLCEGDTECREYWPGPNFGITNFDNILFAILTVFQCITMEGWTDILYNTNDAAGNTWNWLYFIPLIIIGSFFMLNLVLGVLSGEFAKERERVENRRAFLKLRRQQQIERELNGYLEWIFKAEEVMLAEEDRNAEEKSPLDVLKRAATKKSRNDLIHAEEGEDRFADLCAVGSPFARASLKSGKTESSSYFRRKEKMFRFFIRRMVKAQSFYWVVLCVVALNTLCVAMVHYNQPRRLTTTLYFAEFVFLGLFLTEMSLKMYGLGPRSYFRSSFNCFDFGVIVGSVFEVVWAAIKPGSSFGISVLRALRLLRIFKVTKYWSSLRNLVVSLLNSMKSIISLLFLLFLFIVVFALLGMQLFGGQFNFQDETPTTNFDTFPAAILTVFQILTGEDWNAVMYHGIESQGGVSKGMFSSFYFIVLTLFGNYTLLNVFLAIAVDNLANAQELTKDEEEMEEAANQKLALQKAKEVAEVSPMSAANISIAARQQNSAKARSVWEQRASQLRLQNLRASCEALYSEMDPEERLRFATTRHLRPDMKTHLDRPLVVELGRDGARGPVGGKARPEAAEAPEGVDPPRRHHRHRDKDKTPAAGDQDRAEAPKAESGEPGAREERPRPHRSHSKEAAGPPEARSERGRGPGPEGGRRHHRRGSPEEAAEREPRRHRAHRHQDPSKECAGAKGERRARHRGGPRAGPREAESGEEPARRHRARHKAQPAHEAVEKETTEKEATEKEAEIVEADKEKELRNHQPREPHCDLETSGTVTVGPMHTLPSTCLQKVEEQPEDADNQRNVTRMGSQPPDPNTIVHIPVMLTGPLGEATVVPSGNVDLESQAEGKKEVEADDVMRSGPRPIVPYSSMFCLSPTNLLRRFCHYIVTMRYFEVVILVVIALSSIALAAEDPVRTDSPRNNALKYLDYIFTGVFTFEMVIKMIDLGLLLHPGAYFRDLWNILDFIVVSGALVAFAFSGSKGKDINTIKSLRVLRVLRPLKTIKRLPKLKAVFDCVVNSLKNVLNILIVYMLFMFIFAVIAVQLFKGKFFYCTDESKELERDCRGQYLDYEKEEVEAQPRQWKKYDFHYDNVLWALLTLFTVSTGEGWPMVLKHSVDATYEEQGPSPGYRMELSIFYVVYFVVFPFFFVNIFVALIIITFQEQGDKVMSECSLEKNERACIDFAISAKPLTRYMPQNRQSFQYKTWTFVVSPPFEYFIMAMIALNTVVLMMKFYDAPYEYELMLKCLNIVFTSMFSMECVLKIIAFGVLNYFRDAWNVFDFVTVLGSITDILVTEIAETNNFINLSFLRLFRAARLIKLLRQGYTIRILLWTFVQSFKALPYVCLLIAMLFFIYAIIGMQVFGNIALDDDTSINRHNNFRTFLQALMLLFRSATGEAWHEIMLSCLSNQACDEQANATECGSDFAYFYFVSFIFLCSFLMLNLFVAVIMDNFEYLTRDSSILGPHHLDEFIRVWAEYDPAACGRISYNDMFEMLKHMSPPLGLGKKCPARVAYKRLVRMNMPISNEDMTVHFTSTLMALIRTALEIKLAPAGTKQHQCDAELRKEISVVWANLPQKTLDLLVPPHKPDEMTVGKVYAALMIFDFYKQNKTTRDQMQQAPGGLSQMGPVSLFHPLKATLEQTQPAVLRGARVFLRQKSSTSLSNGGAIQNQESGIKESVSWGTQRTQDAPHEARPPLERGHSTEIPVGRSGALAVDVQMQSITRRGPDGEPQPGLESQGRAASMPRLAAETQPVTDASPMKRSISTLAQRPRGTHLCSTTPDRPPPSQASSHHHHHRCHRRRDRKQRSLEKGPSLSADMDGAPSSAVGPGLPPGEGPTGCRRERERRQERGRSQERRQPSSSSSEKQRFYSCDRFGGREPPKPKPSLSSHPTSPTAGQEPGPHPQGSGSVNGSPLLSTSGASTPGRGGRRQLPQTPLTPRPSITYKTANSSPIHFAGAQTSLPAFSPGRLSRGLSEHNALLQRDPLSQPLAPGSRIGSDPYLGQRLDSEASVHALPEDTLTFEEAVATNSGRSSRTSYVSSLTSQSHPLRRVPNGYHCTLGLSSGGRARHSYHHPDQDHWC
T2 sequence (Q02410 whole entry): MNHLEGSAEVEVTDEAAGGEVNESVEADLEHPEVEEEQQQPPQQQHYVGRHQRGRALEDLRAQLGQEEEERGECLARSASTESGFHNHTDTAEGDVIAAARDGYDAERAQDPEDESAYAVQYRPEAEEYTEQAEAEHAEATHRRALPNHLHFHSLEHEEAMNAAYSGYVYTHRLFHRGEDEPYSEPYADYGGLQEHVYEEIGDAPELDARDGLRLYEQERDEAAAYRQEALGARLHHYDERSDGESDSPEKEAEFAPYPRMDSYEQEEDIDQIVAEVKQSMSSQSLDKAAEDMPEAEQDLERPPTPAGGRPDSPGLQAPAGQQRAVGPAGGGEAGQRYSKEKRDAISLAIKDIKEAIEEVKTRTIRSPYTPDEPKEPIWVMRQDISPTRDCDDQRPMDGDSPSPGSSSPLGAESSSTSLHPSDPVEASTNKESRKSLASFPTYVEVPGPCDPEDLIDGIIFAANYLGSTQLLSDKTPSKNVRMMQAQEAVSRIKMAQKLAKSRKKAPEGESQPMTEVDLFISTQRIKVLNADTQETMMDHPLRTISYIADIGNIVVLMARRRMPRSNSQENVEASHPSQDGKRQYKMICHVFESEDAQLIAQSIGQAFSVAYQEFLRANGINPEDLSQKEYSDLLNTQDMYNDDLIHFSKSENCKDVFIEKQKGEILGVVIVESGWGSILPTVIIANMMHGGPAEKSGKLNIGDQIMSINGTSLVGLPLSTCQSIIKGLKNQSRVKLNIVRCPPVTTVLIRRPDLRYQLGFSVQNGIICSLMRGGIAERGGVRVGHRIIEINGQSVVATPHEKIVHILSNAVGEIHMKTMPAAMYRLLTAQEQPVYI
In series [4] the target is T2, Voltage-gated N-type calcium channel alpha-1B subunit/Amyloid beta A4 precursor protein-binding family A member 1. The series can be described thus: disruptors of Mint-PDZ/N-type channel peptide interaction – biochemical, HTRF, SAR follow-up (AID 2489). It counts as functional.
For series [5], the target named is Nucleotide-binding oligomerization domain-containing protein 2 (Homo sapiens, UniProt Q9HC29). The series can be described thus: NOD2 signaling inhibitors, cell-based, luminescence, uHTS, HEK293 (AID 1566). It counts as functional.
For series [6], the system named is HEK293. The series can be described thus: NOD1 signaling inhibitors, primary screen, cell-based, luminescence, uHTS (AID 1578). It counts as functional. To be noted: Homo sapiens.
For series [7], the target named is Nucleotide-binding oligomerization domain-containing protein 1 (Homo sapiens, UniProt Q9Y239). The series can be described thus: NOD1 signaling inhibitors, SAR follow-up, revised (AID 2333). It counts as functional.
In series [8] the test system is HEK293. The series can be described thus: cells. It counts as functional, cell-based. The conditions noted are these: Homo sapiens.
Another series has as its system H9c2. Description: cells. The conditions noted are these: Rattus norvegicus, H9c2, Myocardium. It counts as functional, cell-based.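 Also: confirmatory concentration-response retest of ultra-high-throughput screening hits for modulation of myocardial damage; cell death induced by hydrogen peroxide oxidative stress; compound pretreatment for 60 min then peroxide exposure for 2 h; potency is for protecting the cells against peroxide damage rather than for killing them.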
Series [9] relates to HEK293. Description: cells. It counts as functional, cell-based. The conditions noted are these: Homo sapiens. This is another data set of the same source.
Series [10] deals with HEK293. Description: NOD2 signaling inhibitors in MDP-stimulated cells, cell-based, uHTS, luminescence (AID 2001). It counts as functional. To be noted: Homo sapiens.
Series [11] relates to HEK293. Description: cells. The conditions noted are these: Homo sapiens. It counts as functional, cell-based. This is another data set of the same source.
Series [12] relates to HEK293. Description: cells. To be noted: Homo sapiens.
A further series has as its target Tumor necrosis factor (Homo sapiens, UniProt P01375). The series can be described thus: TNFa-triggered NF-kB activation inhibitors, SAR follow-up, cell-based, revised (AID 2337). The format is functional.
The target in series [13] is T3, G-protein coupled receptor 35 (Homo sapiens, UniProt Q9HC97). Description: SAR Analysis for the identification of Selective Antagonists of ERK1/2 Activity in GPR35-Overexpressing U2OS Cells. [Related pubchem assays: 2079, 2058 ]. It counts as functional, cell-based.
T3 sequence (Q9HC97 whole entry): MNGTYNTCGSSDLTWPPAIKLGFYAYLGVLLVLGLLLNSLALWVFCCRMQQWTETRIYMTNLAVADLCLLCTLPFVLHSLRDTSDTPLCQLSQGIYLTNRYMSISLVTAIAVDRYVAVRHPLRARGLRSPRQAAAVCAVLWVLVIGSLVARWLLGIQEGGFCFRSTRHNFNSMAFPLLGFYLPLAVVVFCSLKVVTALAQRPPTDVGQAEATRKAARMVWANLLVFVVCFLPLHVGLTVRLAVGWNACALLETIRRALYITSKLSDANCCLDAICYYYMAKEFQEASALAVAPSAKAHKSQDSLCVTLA
The target in series [14] is T3, G-protein coupled receptor 35. Description: GPR35 antagonists blocking zaprinast-driven arrestin recruitment, primary screen, imaging, U2OS, beta-arrestin-GFP, zaprinast agonist (AID 2058).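 Also: antagonist potency meaning inhibition of agonist-induced arrestin redistribution.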 The format is functional.
The target of series [15] is G-protein coupled receptor 55 (Homo sapiens, UniProt Q9Y2T6). The series can be described thus: GPR55 antagonists, SAR follow-up, counter-screen for GPR35 antagonist project, imaging, image-based (AID 2397). The format is functional. A general note: Counterscreens check selectivity or assay interference.
G-protein coupled receptor 55, sequence (Q9Y2T6 whole entry): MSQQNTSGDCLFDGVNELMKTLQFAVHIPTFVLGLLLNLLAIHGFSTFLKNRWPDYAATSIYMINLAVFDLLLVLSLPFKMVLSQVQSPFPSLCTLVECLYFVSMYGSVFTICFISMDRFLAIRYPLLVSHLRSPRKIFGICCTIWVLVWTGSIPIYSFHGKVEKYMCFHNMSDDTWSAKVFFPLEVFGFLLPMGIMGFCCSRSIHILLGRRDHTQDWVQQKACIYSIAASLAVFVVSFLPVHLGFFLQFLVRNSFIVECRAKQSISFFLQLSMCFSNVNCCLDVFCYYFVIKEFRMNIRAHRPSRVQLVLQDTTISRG
Another series deals with T4, fMet-Leu-Phe receptor (Homo sapiens, UniProt P21462).
T4 sequence (P21462 whole entry): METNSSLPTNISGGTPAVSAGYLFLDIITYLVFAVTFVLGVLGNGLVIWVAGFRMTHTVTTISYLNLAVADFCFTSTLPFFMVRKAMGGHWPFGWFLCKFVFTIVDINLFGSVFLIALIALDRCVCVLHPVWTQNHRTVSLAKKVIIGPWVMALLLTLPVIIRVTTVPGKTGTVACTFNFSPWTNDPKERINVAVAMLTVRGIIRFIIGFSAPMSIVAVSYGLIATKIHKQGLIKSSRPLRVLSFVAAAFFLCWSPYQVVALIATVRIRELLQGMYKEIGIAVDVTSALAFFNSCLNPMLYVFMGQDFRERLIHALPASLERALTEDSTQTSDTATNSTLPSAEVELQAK
Description: FPR ligands, dose response (AID 519). The format is functional.

The target of series [16] is Lysine-specific demethylase 4A (Homo sapiens, UniProt O75164). The series can be described thus: JMJD2A histone demethylase inhibitors, dose response, selectivity assay for GASC-1 inhibitor project, biochemical, DELFIA europium, cherry-picked samples (AID 488840).
The target of series [17] is T5, Lysine-specific demethylase 4C (Homo sapiens, UniProt Q9H3R0).
T5 sequence (Q9H3R0 whole entry): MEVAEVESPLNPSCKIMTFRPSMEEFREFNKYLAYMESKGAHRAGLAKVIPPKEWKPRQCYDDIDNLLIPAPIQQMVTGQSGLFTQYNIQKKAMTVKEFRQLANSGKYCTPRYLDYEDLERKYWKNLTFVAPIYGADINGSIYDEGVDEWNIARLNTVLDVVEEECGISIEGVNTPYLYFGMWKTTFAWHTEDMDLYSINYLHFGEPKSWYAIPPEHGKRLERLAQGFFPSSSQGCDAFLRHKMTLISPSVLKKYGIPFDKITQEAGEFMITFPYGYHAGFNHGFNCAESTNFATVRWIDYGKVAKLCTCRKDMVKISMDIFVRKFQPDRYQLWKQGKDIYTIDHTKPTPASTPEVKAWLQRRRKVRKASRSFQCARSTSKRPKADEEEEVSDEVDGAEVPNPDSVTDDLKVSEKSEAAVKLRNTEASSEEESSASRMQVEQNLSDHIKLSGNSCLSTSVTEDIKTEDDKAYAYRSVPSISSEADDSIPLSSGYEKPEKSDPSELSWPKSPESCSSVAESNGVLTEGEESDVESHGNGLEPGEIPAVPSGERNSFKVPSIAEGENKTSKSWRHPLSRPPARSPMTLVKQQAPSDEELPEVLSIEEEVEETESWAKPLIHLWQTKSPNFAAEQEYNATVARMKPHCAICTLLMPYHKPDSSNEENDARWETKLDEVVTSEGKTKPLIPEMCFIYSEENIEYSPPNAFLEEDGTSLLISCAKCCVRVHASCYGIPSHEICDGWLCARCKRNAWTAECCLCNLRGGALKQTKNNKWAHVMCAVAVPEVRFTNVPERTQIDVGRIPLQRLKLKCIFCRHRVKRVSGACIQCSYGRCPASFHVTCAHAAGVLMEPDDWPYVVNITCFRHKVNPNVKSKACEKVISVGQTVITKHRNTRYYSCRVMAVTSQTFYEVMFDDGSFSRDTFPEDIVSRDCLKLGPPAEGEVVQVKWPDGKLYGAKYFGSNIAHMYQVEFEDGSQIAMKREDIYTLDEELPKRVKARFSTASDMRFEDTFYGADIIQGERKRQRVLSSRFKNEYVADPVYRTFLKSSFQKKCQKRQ
Description: GASC-1 (JMJD2C) histone demethylase inhibitors, dose response, biochemical, DELFIA europium, cherry-picked samples (AID 488835). The format is functional.

For the next series, the target named is T6, Cytochrome P450 1A2 (Homo sapiens, UniProt P05177).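 Also: PubChem cytochrome P450 panel assay, CYP1A2 panel member.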
T6 sequence (P05177 whole entry): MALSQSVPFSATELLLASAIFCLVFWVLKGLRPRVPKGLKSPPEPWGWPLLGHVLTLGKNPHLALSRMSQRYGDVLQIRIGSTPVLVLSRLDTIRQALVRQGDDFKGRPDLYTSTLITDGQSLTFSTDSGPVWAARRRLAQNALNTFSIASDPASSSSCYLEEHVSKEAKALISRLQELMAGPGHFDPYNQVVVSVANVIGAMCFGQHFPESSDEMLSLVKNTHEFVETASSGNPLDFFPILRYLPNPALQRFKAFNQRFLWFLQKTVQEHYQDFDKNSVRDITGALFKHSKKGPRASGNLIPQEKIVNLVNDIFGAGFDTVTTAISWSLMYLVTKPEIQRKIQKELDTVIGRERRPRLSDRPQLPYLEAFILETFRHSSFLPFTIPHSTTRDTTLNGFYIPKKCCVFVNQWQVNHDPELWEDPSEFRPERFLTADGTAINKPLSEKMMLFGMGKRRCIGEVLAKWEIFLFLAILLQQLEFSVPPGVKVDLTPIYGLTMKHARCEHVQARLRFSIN

Another series addresses Cytochrome P450 2C19 (Homo sapiens, UniProt P33261). Description: Cytochrome panel assay with activity outcomes. Panel member name: p450-cyp2c19 Compounds with AC50 equal or less than 10 uM are considered active. It counts as functional.
Series [18] addresses Nuclear receptor ROR-alpha (Homo sapiens, UniProt P35398). The series can be described thus: ROR modulator nuclear receptor reporter panel, late-stage follow-up, ROR modulator project, cell-based, luciferase reporter, panel member RORA (AID 2117).
Series [19] addresses Nuclear receptor ROR-gamma (Homo sapiens, UniProt P51449). Description: ROR modulator nuclear receptor reporter panel, late-stage follow-up, ROR modulator project, cell-based, luciferase reporter, panel member RORG (AID 2117).
In another series the target is Phosphomannomutase 2 (Homo sapiens, UniProt O15305). The series can be described thus: Counter screen SAR assay for PMM2 inhibitors via a fluorescence intensity assay. [Related pubchem assays (depositor defined):AID1545, AID1574].
In series [20] the target is T7, Mannose-6-phosphate isomerase (Homo sapiens, UniProt P34949).
T7 sequence (P34949 whole entry): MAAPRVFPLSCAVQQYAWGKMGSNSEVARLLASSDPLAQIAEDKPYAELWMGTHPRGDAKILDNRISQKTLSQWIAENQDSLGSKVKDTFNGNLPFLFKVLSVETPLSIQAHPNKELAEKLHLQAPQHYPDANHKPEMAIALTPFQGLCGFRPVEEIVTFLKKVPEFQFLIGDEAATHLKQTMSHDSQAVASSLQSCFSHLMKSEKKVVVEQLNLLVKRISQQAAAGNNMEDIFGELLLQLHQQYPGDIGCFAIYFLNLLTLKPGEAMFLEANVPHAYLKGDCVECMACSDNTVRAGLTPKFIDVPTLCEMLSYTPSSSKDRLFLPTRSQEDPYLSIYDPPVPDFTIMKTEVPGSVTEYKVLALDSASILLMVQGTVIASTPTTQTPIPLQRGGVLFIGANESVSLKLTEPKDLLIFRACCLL
Description: PMI enzyme inhibitors, confirmation, biochemical, fluorescence intensity (AID 1535).

Activity calls are given as the source filed them. Where only a bound is given, the exact number is not on record here.

T1 sequence (Q92731 whole entry): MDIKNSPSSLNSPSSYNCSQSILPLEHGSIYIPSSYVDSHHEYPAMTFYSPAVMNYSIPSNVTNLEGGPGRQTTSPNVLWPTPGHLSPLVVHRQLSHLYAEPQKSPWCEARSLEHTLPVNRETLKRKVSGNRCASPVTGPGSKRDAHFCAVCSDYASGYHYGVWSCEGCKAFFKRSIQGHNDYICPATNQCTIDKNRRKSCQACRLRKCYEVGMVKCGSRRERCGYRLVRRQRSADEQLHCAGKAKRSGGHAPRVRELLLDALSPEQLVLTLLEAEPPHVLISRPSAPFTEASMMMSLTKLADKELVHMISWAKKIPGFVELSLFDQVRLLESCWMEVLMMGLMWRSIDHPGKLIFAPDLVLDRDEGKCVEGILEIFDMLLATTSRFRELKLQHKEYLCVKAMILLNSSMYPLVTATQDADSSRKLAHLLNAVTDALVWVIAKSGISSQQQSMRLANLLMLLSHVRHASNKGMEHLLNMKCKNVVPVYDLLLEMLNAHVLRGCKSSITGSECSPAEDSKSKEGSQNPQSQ
Cytochrome P450 3A4, sequence (P08684 whole entry): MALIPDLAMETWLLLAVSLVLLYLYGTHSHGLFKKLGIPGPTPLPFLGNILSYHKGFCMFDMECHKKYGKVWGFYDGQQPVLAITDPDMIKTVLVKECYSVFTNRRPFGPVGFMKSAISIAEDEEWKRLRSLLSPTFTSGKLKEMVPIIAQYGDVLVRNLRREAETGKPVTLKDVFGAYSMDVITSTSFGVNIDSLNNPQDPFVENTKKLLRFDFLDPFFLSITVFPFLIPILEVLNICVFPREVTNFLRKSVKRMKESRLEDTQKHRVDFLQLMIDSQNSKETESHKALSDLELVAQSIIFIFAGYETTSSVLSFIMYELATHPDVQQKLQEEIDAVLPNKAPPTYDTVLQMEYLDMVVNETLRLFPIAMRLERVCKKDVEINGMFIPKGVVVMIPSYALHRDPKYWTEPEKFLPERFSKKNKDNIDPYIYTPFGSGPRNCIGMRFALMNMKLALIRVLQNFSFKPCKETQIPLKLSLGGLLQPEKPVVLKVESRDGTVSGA
Tumor necrosis factor, sequence (P01375 whole entry): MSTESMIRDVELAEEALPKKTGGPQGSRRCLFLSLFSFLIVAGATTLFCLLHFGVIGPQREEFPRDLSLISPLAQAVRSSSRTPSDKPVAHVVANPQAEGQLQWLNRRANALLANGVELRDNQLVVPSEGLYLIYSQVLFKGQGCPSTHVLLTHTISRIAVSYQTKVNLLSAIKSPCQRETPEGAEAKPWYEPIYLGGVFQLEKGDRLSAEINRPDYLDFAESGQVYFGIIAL

For `COc1ccc(CNC(=O)COC(=O)c2cc(-c3ccco3)nc3ccccc23)cc1`, the IC50 (in general, the concentration that inhibits the measured activity by half) against Estrogen receptor beta [1] was > 50 µM (not active); at SUMO E1/E2, 6.59 µM (active); on Estrogen receptor beta [2], < 1.56 µM (active); in [3], 11.4 µM (active); in [4] it was > 56.8 µM (inactive).
Turning to `Cc1c(O)ccc2c(-c3ccccc3)cc(=O)oc12`, the EC50 – broadly, the midpoint of the concentration-response curve – in series [5] is 4.67 µM (active); with HEK293 [6] it was 16.3 µM (active). Moreover, the IC50 in [7] is 6.53 µM (active); in the series with HEK293 [8], > 20 µM (inactive); with H9c2 it was > 79 µM (inactive); with HEK293 [9] it was > 20 µM (inactive); in the series with HEK293 [10], 6.85 µM (active); in the series with HEK293 [11], 5.78 µM (active). Further, the IC50 with HEK293 [12] is > 20 µM (inactive); on Tumor necrosis factor, 6.62 µM (active).
Consider `Cc1nc(N2CCC(C)CC2)c2c(C)c(C(=O)Nc3ccc4c(c3)OCCO4)sc2n1`, for which the IC50 in series [13] was > 32 µM (not active); in [14], 1.2 µM (active); in series [15] it was > 32 µM (inactive).
`O=c1cc(N2CCc3ccccc32)[nH]c(=O)n1Cc1ccc(F)cc1`: on fMet-Leu-Phe receptor, the Ki – broadly, a dissociation constant, usually derived from enzyme kinetics or from competition with a known ligand – was > 66.7 µM (inactive). The AC50 (usually the midpoint of the concentration-response curve, whichever way the signal moves) in [16] was 6.55 µM (active); in series [17] it was 1.09 µM (active).
For `N#Cc1cccc(NC(=O)N2CC[C@@]3(CCCN(C(=O)Oc4ccccc4)C3)C2)c1`, the AC50 entry at Cytochrome P450 1A2 was “inconclusive”; on Cytochrome P450 3A4, 2.51 µM (inconclusive); at Cytochrome P450 2D6, “inconclusive”; at Cytochrome P450 2C19, “inconclusive”; at Cytochrome P450 2C9 it was “inconclusive”.
Consider `O=S(=O)(Nc1ccc(C(O)(C(F)(F)F)C(F)(F)F)cc1)c1cccc2ccccc12`, for which the IC50 in series [18] was 7.75 µM (active); in [19], 1.94 µM (active).
As for `Clc1nss/c1=N\c1nc2ccccc2s1`, the IC50 (on Phosphomannomutase 2; in series [20]) was > 100 µM (inactive) each time.

The values above are taken from ChEMBL document CHEMBL1201862, “PubChem BioAssay data set” (2004).
